Source: patent US9849135B2, “USP14 inhibitors for treating or preventing viral infections” (priority 2013, dated 2017)
Read-outs that look alike come from different tables or passages of the source.

What was measured:
[1] = test system: DENV2 (New Guinea C strain); assay type: cell-based, Dengue virus; details: 100 μM IU1; preincubated cells
[2] = test system: DENV2; assay type: cell-based, Dengue virus
[3] = test system: WNV (WNO2-1956); assay type: cell-based, West Nile virus
[4] = test system: yellow fever virus (YFV, 17D vaccine strain); assay type: cell-based
[5] = test system: LACV (LAC74-32813); assay type: cell-based, La Crosse virus
[6] = test system: CHIKV (LR2006-OPY1); assay type: cell-based, Chikungunya virus

## Cc1cc(C(=O)CN2CCCC2)c(C)n1-c1ccc(F)cc1 [IU1, 1-(1-(4-fluorophenyl)-2,5-dimethyl-1H-pyrrol-3-yl)-2-(pyrrolidin-1-yl)ethanone]
[1]
  plaques in plaque assay: No plaques were observed
[2]; 75 μM IU1, post-infection addition
  titer, % of maximum: 37%
[2]; 100 μM IU1, post-infection addition
  titer, % of maximum: 0.5%
[3]
  WNV titer reduction: 3-5 fold
  WNV titer versus without the drug: significantly higher
  plaques in plaque assay (WNV): no plaques were observed
[4]
  YFV titer reduction: 3-5 fold
[5]
  LACV replication reduction: 3 fold
[6]
  effect on CHIKV replication: negligible or non-existent
